{"source": "patent US10071105B2", "about": "“Formulations of deoxycholic acid and salts thereof” (Kythera Biopharmaceuticals, Inc., priority 2009, dated 2018)", "assay": "Reverse phase HPLC, degradation products (purity), stability study", "type": "physicochemical", "details": "storage two months (eight weeks) at 4° C., 25° C. and 37° C.", "experimental": "Reverse phase HPLC was used along with visual observations which were conducted at each time point to monitor any precipitation or cloudiness.\nThe formulations were incubated at 4° C., 25° C. and 37° C. and analyzed for a) degradation products, b) pH stability and c) formulation clarity.\nReverse phase HPLC was used to visualize degradation products."}
{"compound": "C[C@H](CCC(=O)[O-])[C@H]1CCC2C3CC[C@@H]4C[C@H](O)CC[C@]4(C)C3C[C@H](O)[C@@]21C.[Na+]", "note": "(stereo partly drawn) [sodium deoxycholate, sodium (4R)-4-((3R,5R,10S,12S,13R,17R)-3,12-dihydroxy-10,13-dimethylhexadecahydro-1H-cyclopenta[a]phenanthren-17-yl)pentanoate]", "values": [{"measurement": "chemical degradation by reverse phase HPLC", "result": "no degradation"}]}
